The results in this text go back to ChEMBL document CHEMBL5291721, “A preclinical secondary pharmacology resource illuminates target-adverse drug reaction associations of marketed drugs” (Nat Commun, 2023).

One test concerns the target T1, Adenosine receptor A3 (Homo sapiens, UniProt P0DMS8).
T1 sequence (P0DMS8 whole entry): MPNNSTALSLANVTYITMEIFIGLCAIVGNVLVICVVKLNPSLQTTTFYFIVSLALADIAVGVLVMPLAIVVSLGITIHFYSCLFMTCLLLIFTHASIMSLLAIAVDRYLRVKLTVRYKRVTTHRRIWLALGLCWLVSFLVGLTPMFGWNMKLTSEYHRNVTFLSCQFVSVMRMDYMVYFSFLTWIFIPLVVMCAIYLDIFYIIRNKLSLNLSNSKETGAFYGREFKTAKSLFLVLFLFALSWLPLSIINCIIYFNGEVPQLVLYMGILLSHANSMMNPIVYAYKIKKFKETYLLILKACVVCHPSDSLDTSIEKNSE

For test [1], the target named is T2, 5-hydroxytryptamine receptor 3A (Homo sapiens, UniProt P46098).
T2 sequence (P46098 whole entry): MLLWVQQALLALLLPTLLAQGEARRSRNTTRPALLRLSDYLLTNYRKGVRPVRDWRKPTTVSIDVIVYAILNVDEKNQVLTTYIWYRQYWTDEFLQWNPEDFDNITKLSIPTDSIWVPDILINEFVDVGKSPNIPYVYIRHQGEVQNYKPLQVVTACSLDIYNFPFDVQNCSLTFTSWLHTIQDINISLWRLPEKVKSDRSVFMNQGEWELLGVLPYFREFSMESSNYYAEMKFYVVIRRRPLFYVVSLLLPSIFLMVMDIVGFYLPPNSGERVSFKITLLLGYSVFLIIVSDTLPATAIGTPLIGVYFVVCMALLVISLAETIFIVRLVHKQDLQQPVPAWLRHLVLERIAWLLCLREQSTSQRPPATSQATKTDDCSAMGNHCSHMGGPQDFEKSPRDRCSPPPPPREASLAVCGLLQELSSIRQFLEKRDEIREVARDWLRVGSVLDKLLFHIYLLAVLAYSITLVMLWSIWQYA
The format is functional.

In test [2] the target is Kappa-type opioid receptor (Homo sapiens, UniProt P41145).
Test [3] has as its target T3, 5-hydroxytryptamine receptor 1A (Homo sapiens, UniProt P08908).
T3 sequence (P08908 whole entry): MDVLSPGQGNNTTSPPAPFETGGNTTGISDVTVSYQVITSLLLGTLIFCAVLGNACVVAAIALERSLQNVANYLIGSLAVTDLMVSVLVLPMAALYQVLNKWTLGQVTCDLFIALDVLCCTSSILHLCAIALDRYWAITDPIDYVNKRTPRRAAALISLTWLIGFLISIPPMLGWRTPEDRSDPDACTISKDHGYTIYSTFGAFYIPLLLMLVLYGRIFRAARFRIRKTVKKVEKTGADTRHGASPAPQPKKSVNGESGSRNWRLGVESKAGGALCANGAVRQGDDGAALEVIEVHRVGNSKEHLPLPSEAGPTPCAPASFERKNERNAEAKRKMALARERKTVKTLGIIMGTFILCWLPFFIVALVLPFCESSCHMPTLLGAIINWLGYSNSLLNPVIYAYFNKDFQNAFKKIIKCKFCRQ
The format is functional, cell-based.

The target in test [4] is Gamma-aminobutyric acid receptor subunit alpha-1 (Rattus norvegicus, UniProt P62813). The format is functional.
The target of test [5] is T4, Alpha-2A adrenergic receptor (Homo sapiens, UniProt P08913).
T4 sequence (P08913 whole entry): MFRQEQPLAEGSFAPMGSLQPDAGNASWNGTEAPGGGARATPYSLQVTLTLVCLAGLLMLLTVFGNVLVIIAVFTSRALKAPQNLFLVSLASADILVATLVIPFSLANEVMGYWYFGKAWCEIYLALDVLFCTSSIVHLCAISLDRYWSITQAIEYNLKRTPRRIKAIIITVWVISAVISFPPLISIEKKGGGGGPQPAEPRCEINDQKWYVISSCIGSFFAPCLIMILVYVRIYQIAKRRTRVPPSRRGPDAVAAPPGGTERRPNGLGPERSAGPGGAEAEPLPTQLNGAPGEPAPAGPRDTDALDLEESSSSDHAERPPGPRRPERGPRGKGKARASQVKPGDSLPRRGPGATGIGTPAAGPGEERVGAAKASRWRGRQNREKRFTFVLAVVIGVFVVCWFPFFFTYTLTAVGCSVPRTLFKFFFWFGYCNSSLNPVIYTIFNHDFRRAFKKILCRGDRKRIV
The class given is functional, cell-based.

For a further test, the target named is Motilin receptor (Homo sapiens, UniProt O43193).
The target of test [6] is Voltage-gated inwardly rectifying potassium channel KCNH2 (Homo sapiens, UniProt Q12809). The class given is functional. The note with it: read-out: AC50.
For test [7], the target named is T5, Alpha-1A adrenergic receptor (Homo sapiens, UniProt P35348).
T5 sequence (P35348 whole entry): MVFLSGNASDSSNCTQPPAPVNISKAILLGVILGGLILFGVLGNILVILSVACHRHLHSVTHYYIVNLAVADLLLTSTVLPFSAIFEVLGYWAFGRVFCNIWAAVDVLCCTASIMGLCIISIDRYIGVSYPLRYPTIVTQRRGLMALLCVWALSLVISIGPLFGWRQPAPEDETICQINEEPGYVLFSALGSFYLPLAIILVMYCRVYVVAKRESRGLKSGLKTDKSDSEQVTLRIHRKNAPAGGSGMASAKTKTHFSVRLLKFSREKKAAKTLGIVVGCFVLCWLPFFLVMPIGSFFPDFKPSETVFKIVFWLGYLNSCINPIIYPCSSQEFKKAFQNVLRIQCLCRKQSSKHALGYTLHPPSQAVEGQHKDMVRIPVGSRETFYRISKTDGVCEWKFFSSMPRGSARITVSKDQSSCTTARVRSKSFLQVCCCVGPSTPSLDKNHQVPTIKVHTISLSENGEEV
The format is functional, cell-based.
Note: assay procedure not described here.

Sequence of Gamma-aminobutyric acid receptor subunit alpha-1 (P62813 whole entry): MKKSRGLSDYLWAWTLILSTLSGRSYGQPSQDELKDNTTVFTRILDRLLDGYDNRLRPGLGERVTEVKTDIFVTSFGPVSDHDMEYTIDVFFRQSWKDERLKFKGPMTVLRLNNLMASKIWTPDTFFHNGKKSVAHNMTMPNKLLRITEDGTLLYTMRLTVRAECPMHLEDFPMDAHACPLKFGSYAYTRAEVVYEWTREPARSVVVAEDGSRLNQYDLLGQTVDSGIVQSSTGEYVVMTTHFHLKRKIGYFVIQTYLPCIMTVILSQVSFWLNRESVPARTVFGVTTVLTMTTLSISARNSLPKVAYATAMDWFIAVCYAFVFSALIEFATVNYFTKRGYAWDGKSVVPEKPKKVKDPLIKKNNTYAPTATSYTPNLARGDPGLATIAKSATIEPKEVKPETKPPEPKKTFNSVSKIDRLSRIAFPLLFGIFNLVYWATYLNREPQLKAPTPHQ
Sequence of Kappa-type opioid receptor (P41145 whole entry): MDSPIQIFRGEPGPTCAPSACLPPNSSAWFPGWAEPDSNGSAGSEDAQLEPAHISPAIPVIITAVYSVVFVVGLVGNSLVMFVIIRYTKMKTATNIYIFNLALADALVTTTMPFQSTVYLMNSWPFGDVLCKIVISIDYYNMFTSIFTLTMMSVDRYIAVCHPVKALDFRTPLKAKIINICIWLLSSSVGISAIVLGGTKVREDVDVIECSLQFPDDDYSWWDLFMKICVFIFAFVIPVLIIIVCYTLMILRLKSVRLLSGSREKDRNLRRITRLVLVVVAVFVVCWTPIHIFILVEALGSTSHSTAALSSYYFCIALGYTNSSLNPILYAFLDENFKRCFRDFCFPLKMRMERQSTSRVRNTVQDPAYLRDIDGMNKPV
Sequence of Voltage-gated inwardly rectifying potassium channel KCNH2 (Q12809 whole entry): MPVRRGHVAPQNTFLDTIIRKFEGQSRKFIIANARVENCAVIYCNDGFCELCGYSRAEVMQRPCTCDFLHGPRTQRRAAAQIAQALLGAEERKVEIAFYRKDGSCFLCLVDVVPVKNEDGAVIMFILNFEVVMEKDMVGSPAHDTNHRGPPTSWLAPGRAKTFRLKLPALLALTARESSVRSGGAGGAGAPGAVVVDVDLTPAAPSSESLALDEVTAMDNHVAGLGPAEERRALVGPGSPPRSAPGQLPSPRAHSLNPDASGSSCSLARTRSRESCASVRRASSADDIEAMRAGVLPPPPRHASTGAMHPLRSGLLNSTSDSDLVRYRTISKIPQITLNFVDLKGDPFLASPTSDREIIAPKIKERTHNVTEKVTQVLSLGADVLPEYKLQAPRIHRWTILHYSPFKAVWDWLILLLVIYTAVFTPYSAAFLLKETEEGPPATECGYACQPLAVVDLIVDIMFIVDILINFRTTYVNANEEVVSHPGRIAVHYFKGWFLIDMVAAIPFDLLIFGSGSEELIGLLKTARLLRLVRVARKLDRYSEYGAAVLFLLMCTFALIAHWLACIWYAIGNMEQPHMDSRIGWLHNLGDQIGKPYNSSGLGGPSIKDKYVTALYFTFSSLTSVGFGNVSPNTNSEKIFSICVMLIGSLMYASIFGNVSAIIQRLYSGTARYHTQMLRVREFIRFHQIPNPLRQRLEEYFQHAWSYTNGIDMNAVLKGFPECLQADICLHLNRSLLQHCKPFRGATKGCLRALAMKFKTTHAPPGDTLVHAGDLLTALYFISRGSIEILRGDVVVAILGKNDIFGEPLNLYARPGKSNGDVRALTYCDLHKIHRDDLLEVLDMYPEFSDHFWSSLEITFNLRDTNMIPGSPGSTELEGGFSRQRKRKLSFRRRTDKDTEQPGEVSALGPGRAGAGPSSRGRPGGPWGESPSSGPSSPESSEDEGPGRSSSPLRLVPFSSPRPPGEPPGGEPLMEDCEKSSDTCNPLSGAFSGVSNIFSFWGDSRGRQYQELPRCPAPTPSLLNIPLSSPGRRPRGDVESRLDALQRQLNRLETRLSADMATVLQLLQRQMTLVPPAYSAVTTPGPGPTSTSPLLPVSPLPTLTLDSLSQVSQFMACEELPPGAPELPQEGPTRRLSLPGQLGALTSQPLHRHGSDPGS
Sequence of Motilin receptor (O43193 whole entry): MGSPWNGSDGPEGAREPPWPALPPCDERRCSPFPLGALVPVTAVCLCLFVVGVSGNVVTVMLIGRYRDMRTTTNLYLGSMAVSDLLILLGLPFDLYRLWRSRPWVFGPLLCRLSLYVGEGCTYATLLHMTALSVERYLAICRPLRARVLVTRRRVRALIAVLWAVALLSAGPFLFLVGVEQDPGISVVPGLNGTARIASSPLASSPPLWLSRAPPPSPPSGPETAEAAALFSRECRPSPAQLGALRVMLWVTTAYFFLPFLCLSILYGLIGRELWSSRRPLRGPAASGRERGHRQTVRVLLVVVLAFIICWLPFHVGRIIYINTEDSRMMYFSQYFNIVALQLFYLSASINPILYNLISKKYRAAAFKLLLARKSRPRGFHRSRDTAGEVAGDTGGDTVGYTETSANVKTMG

Regarding `CC(=O)OCC(=O)[C@@]12OC3(CCCC3)O[C@@H]1C[C@H]1[C@@H]3CCC4=CC(=O)C=C[C@]4(C)[C@@]3(F)[C@@H](O)C[C@@]12C` [AMCINONIDE], the AC50 (in general, the concentration giving half of the maximal activity seen) was over 10 µM on Adenosine receptor A3; over 30 µM in [1]; over 10 µM in [2]; over 10 µM in test [3]; over 10 µM in test [4]; over 10 µM in test [5]. Besides, the AC50 is over 10 µM at Motilin receptor and 17.3 µM in [6].
Regarding `CN1CCc2cccc3c2[C@H]1Cc1ccc(O)c(O)c1-3` [APOMORPHINE], the AC50 on Adenosine receptor A3 was 0.67 µM; in test [2], 19.4 µM; in test [4], over 10 µM; in test [7], 0.32 µM; in test [5], 3.8 µM; on Motilin receptor it was over 10 µM.
`CCCCN1CCCCC1C(=O)Nc1c(C)cccc1C` (stereo unspecified) [BUPIVACAINE]: the AC50 (on Adenosine receptor A3; in test [1]; in [2]; in test [3]; in test [4]; in test [5]) was over 30 µM each time. Moreover, the AC50 on Motilin receptor was over 30 µM; in test [6], 11 µM.
In the case of `CN1C(=O)CC(=O)N(c2ccccc2)c2cc(Cl)ccc21` [CLOBAZAM], the AC50 at Adenosine receptor A3 was over 10 µM; in test [1] it was over 10 µM; in test [2], 14.1 µM; in test [3], over 10 µM; in test [4], 0.3 µM; in test [5] it was over 10 µM. The values for the AC50 (at Motilin receptor; in test [6]) were over 10 µM and over 30 µM, respectively.
For the compound `CC(=O)O[C@@]12CO[C@@H]1C[C@H](O)[C@@]1(C)C(=O)[C@H](O)C3=C(C)[C@@H](OC(=O)[C@H](O)[C@@H](NC(=O)OC(C)(C)C)c4ccccc4)C[C@@](O)([C@@H](OC(=O)c4ccccc4)[C@H]21)C3(C)C` [DOCETAXEL ANHYDROUS], the AC50 (on Adenosine receptor A3; in test [1]; in test [2]; in test [3]; in [4]; in test [5]) was over 30 µM in each case. Further, the AC50 (on Motilin receptor; in [6]) was over 30 µM each time.
As for `CCCCCCCCCCCC[N+](C)(C)CCOc1ccccc1` [DOMIPHEN], the AC50 was 10 µM on Adenosine receptor A3; over 30 µM in [1]; 3.6 µM in [2]; over 30 µM in [4]; over 30 µM in test [7]; 3 µM at Motilin receptor. The AC50 in test [6] was found to be 1.7 µM.
Take `C#CC1(OC(N)=O)CCCCC1` [ETHINAMATE]: the AC50 is over 10 µM on Adenosine receptor A3; over 30 µM in test [1]; over 10 µM in test [2]; over 10 µM in test [3]; over 10 µM in test [4]; over 10 µM in test [5]. The AC50 at Motilin receptor is over 10 µM; in test [6] it was over 30 µM.
Take `CCNC(C)Cc1cccc(C(F)(F)F)c1` (stereo unspecified) [FENFLURAMINE]: the AC50 was over 30 µM on Adenosine receptor A3; over 30 µM in test [1]; 13.4 µM in test [2]; over 10 µM in test [4]; over 10 µM on Motilin receptor; over 30 µM in test [6].
As for `COc1c(N2CCNC(C)C2)c(F)cc2c(=O)c(C(=O)O)cn(C3CC3)c12` (stereo unspecified) [GATIFLOXACIN], the AC50 at Adenosine receptor A3 is over 10 µM; in [1] it was over 30 µM; in test [2] it was over 10 µM; in [3], over 10 µM; in test [4] it was over 10 µM; in test [5], over 10 µM. The AC50 is over 10 µM at Motilin receptor and 24 µM in [6].
As for `O=C(CCCCC(=O)Nc1c(I)cc(I)c(C(=O)O)c1I)Nc1c(I)cc(I)c(C(=O)O)c1I` [IODIPAMIDE], the AC50 at Adenosine receptor A3 is over 10 µM; in [1] it was over 30 µM; in test [2] it was over 10 µM; in test [3], over 10 µM; in [4] it was over 10 µM; in test [5], over 10 µM. The AC50 on Motilin receptor was over 10 µM; in test [6], over 30 µM.
With `CC(C)[N+](C)(CCC(C(N)=O)(c1ccccc1)c1ccccc1)C(C)C` [ISOPROPAMIDE], the AC50 on Adenosine receptor A3 is over 10 µM; in test [1], over 30 µM; in test [2] it was over 10 µM; in test [3] it was over 10 µM; in test [4], over 10 µM; in test [5] it was over 10 µM. Besides, the AC50 was over 10 µM on Motilin receptor and 3.3 µM in [6].
For `CN1CC[C@]23CCCC[C@H]2[C@H]1Cc1ccc(O)cc13` [LEVORPHANOL], the AC50 is over 10 µM at Adenosine receptor A3; over 30 µM in test [1]; 5.85 µM in test [2]; over 10 µM in test [3]; over 10 µM in test [4]; 9 µM in test [5]. Besides, the AC50 was over 10 µM at Motilin receptor and 13.4 µM in [6].
In the case of `CC1=CC(=O)c2ccccc2C1=O` [MENADIONE], the AC50 on Adenosine receptor A3 is 13.7 µM; in test [1] it was over 30 µM; in test [2], over 10 µM; in [3] it was over 10 µM; in test [4] it was over 10 µM; in [5] it was over 10 µM. The AC50 on Motilin receptor is over 10 µM; in test [6], over 30 µM.
With `COc1ccccc1OCC(O)COC(N)=O` (stereo unspecified) [METHOCARBAMOL], the AC50 is over 10 µM at Adenosine receptor A3; over 30 µM in test [1]; over 10 µM in test [2]; over 10 µM in test [3]; over 10 µM in test [4]; over 10 µM in test [5]. The AC50 at Motilin receptor was over 10 µM; in test [6], over 30 µM.
On to `CCCCCCCCOc1ccccc1C(=O)Nc1ccc(C(=O)OCC[N+](C)(CC)CC)cc1` [OTILONIUM BROMIDE], for which the AC50 at Adenosine receptor A3 was 5.3 µM; in [1], over 30 µM; in test [2], 3.4 µM; in test [4], over 30 µM; in [7], 12 µM; on Motilin receptor, 5.7 µM. Moreover, the AC50 in test [6] turned out to be 0.66 µM.
Take `CN1C(=O)CC(c2ccccc2)C1=O` (stereo unspecified) [PHENSUXIMIDE]: the AC50 on Adenosine receptor A3 was over 10 µM; in test [1] it was over 30 µM; in test [2], over 10 µM; in [4], over 10 µM; in test [5] it was over 10 µM; on Motilin receptor, over 10 µM. In addition, the AC50 in test [6] was over 30 µM.
Regarding `Cc1c(C(=O)Nc2ccc(N3C[C@@H](C)O[C@@H](C)C3)nc2)cccc1-c1ccc(OC(F)(F)F)cc1` [SONIDEGIB], the half-maximal activity concentration (AC50) is over 30 µM on Adenosine receptor A3; over 10 µM in [1]; over 10 µM in test [2]; over 10 µM in test [4]; over 10 µM on Motilin receptor.
